Legend:
A549 lung cancer cells = assay: SRB growth inhibition of A549 lung cancer cells; format: cell-based, human; conditions: for IC50: A549 lung cancer cells, unit inferred, read-out: SRB (IC50 for growth inhibition of A549 lung cancer cells)
Excerpt: As a non-limiting example, compounds 1272 and 1273 (set forth in Table 1) were synthesized starting from 3-bromoaniline, which upon condensation with hydroxylamine and chloral hydrate followed by concentrated sulfuric acid yielded an inseparable regioisomeric mixture of 4- and 6-bromo isatins. The addition of the two phenyl groups to the three position of the oxindole allowed easy chromatographic separation of the 4- and 6-bromo-3,3-diphenyloxindoles 1272 and 1273. Table 1 sets forth biological data for diaryloxindole compounds including, but not limited to 1272 and 1273. For Tables 1-14, Ca^2+ refers to Ca^2+ release from intracellular stores where a “+” denotes release and a “+/−” denotes inconclusive; eIF2α-P refers to phosphorylation of eIF2α measured by Western blot; SRB refers to the inhibitory concentration to reduce cell growth by 50% (IC50) for growth inhibition of A549 lung cancer cells; and n.d. is not determined. […]

eIF2α = eIF2α phosphorylation measured by Western blot; format: cell-based; conditions: for eIF2α-P (phosphorylation of eIF2α measured by Western blot): unit or reference not given
Excerpt: (§1) As a non-limiting example, compounds 1272 and 1273 (set forth in Table 1) were synthesized starting from 3-bromoaniline, which upon condensation with hydroxylamine and chloral hydrate followed by concentrated sulfuric acid yielded an inseparable regioisomeric mixture of 4- and 6-bromo isatins. The addition of the two phenyl groups to the three position of the oxindole allowed easy chromatographic separation of the 4- and 6-bromo-3,3-diphenyloxindoles 1272 and 1273. Table 1 sets forth biological data for diaryloxindole compounds including, but not limited to 1272 and 1273. For Tables 1-14, Ca^2+ refers to Ca^2+ release from intracellular stores where a “+” denotes release and a “+/−” denotes inconclusive; eIF2α-P refers to phosphorylation of eIF2α measured by Western blot; SRB refers to the inhibitory concentration to reduce cell growth by 50% (IC50) for growth inhibition of A549 lung cancer cells; and n.d. is not determined.
(§2) Without intending to be bound by theory, the mechanism of action of translation initiation inhibitors is set forth in FIG. 1, and includes the depletion (complete or partial depletion) of intracellular calcium (Ca^2+) stores and phosphorylation of eIF2α. Compounds synthesized using the approaches described herein were screened for their ability to partially deplete intracellular Ca^2+ stores using FURA-2AM loaded cells (Benzaquen et al. (1995) Nature Medicine, 1:534, incorporated herein by reference in its entirety for all purposes). A limited subset of compounds were further screened for their ability to deplete endoplasmic reticulum (ER) Ca^2+. The Ca^2+ content of the ER was monitored using ER-targeted, Ca^2+ sensitive, recombinant proteins. These recombinant proteins emitted light by fluorescent resonance energy transfer (FRET) as a function of the Ca^2+ content of the medium. Such assays are previously described (Miyawaki, A.; Mizuno, H.; Llopis, J.; Tsien, R. Y.; Jalink, K. Cameleons as cytosolic and intra-organellar calcium probes, Oxford University Press: Oxford, London, 2001; pp 3-16, incorporated herein by reference in its entirety for all purposes). Compounds that depleted Ca^2+ were further evaluated for their ability to phosphorylate eIF2α. eIF2α phosphorylation was measured by Western blot analysis using the phospho-specific anti-eIF2α antibody, as previously described (Aktas et al. (1998) Proc. Natl. Acad. Sci. USA, 95:8280, incorporated herein by reference in its entirety for all purposes).

[1] = tested on: intracellular Ca^2+ stores; assay: Ca2+ release from intracellular stores (FURA-2AM loaded cells); format: cell-based; design: key to Ca^2+ (Ca^2+ release from intracellular stores): a “+” denotes release; a “+/−” denotes inconclusive
Excerpt: as §1, §2

Structure (SMILES)	IC50 (A549 lung cancer cells) [µM]	eIF2α-P (phosphorylation of eIF2α measured by Western blot) (eIF2α)	Ca^2+ (Ca^2+ release from intracellular stores) [1]	growth inhibition of cancer cells (in words) (A549 lung cancer cells; A549)	eIF2α phosphorylation (in words) (eIF2α)
Cc1cc(C2(c3ccccc3)C(=O)Nc3ccccc32)c(NS(=O)(=O)c2ccc(-c3ccccc3)cc2)cc1O (stereo not drawn) [Compound 1593]	4	2.22	–	–	–
CC(C)c1ccc(O)c(C2(c3ccccc3)C(=O)Nc3ccccc32)c1 (stereo not drawn) [Compound 1282]	4	4.96	+	–	–
CC(C)(C)c1ccc(O)c(C2(c3ccccc3)C(=O)Nc3c(C(F)(F)F)cccc32)c1 (stereo not drawn) [Compound 1230]	3	0.41	+/−	–	–
CCc1ccc(O)c(C2(c3ccccc3)C(=O)Nc3ccccc32)c1 (stereo not drawn) [Compound 1285]	8	2.96	+	–	–
O=C1Nc2ccc(Cl)cc2C1(c1ccccc1)c1ccccc1 [Compound 1206]	9	1.58	+	–	–
O=C1Nc2ccccc2C1(c1ccccc1)c1ccccc1O (stereo not drawn) [Compound 1197]	14	1.50	+	–	–
O=C1Nc2ccccc2C1(c1ccccc1)c1ccccc1 [Compound 1194]	13	2.5	+	–	–
CCCCCCCc1ccc(O)c(C2(c3ccccc3)C(=O)Nc3ccccc32)c1 (stereo not drawn) [Compound 1279]	3	3.49	+/−	–	–
Cc1cc(C2(c3ccccc3)C(=O)Nc3ccccc32)c(NS(=O)(=O)c2cccc(C(F)(F)F)c2)cc1O (stereo not drawn) [Compound 1514]	3	1.65	+	–	–
CCCCCCCCCc1ccc(O)c(C2(c3ccccc3)C(=O)Nc3ccccc32)c1 (stereo not drawn) [Compound 1280]	3	3.89	+/−	–	–
COc1ccc2c(c1)C(c1ccccc1)(c1cc(C(C)(C)C)ccc1O)C(=O)N2 (stereo not drawn) [Compound 1214]	6	1.62	+	–	–
COC(=O)c1cccc2c1NC(=O)C2(c1ccccc1)c1ccccc1 [Compound 1354]	> 20	1.74	+	–	–
O=C1Nc2c(I)cccc2C1(c1ccccc1)c1ccccc1 [Compound 1267]	–	1.88	–	–	–
CC(C)(C)c1ccc(O)c(C2(c3ccccc3)C(=O)Nc3cccc(Br)c32)c1 (stereo not drawn) [Compound 1234]	6	2.57	+	–	–
Cc1ccc(O)c(C2(c3ccccc3)C(=O)Nc3ccccc32)c1 (stereo not drawn) [Compound 1278]	8	3.33	+	–	–
Cc1cc(C2(c3ccccc3)C(=O)Nc3ccccc32)c(NS(=O)(=O)c2ccc([N+](=O)[O-])cc2)cc1O (stereo not drawn) [Compound 1589]	5	1	+	–	–
CC(C)(C)OC(=O)NCCOc1ccc(C(C)(C)C)cc1C1(c2ccccc2)C(=O)Nc2ccccc21 (stereo not drawn) [Compound 1329]	3	0.89	–	–	–

Structure (SMILES)	IC50 (A549 lung cancer cells) [µM]	eIF2α-P (phosphorylation of eIF2α measured by Western blot) (eIF2α)	Ca^2+ (Ca^2+ release from intracellular stores) [1]	growth inhibition of cancer cells (in words) (A549 lung cancer cells; A549)	eIF2α phosphorylation (in words) (eIF2α)
O=C(O)c1cccc2c1NC(=O)C2(c1ccccc1)c1ccccc1 [Compound 1353]	> 20	1.54	–	–	–
CC(C)(C)c1ccc(O)c(C2(C3CCCCC3)C(=O)Nc3ccccc32)c1 (stereo not drawn) [Compound 1277]	10	1.08	–	–	–
COC(=O)C(Cc1ccc(O)c(C2(c3ccccc3)C(=O)Nc3ccccc32)c1)NC(=O)OCC1c2ccccc2-c2ccccc21 (stereo not drawn) [Compound 1172]	–	1.94	+	–	–
CC(=O)Nc1ccc(S(=O)(=O)Nc2cc(O)c(C)cc2C2(c3ccccc3)C(=O)Nc3ccccc32)cc1 (stereo not drawn) [Compound 1512]	4	1.01	–	–	–
CC(C)(C)c1ccc(OC(=O)CCCC(=O)O)c(C2(c3ccccc3)C(=O)Nc3ccccc32)c1 (stereo not drawn) [Compound 1396]	7	1.72	–	–	–
Cc1cc(C2(c3ccccc3)C(=O)Nc3ccccc32)c(NC(=O)OCC2c3ccccc3-c3ccccc32)cc1O (stereo not drawn) [Compound 1395]	3	1.84	–	–	–
CCc1cccc2c1NC(=O)C2(c1ccccc1)c1ccccc1 [Compound 1268]	14	2.19	–	–	–
CCCCCCCCc1ccc(O)c(C2(c3ccccc3)C(=O)Nc3ccccc32)c1 (stereo not drawn) [Compound 1284]	3	2.91	–	–	–
CCCCCCCCCCCCC1(c2cc(C(C)(C)C)ccc2O)C(=O)Nc2ccccc21 (stereo not drawn) [Compound 1274]	3	0.91	–	–	–
COc1ccc(C2(c3ccccc3)C(=O)Nc3ccccc32)cc1 (stereo not drawn) [Compound 1294]	10	1.52	–	–	–
O=C1Nc2c(CO)ccc(Cl)c2C1(c1ccccc1)c1ccccc1 [Compound 1398]	14	1.48	–	reduced potency of tumor cell growth inhibition	reduced eIF2α phosphorylation relative to compound 1392
Cc1cc(C2(c3ccccc3)C(=O)Nc3ccccc32)c(NS(=O)(=O)c2ccc(Oc3ccccc3)cc2)cc1O (stereo not drawn) [Compound 1594]	5	3.73	–	–	–
O=C1Nc2ccc(S(=O)(=O)O)cc2C1(c1ccccc1)c1ccccc1 [Compound 1266]	9	1.62	–	–	–
Cc1cc(C2(c3ccccc3)C(=O)Nc3ccccc32)c(NC(=O)c2ccc(C(C)(C)C)cc2)cc1O (stereo not drawn) [Compound 1493]	3	2.06	–	–	–
C=CCCCOc1ccc(C2(c3cc(C(C)(C)C)ccc3O)C(=O)Nc3ccccc32)cc1 (stereo not drawn) [Compound 1218]	7	1.36	–	–	–
C=CCOCN1C(=O)C(c2ccccc2)(c2cc(C(C)(C)C)ccc2O)c2ccccc21 (stereo not drawn) [Compound 1227]	3	–	+	–	–
